In US10710980B2, “Aminopyridine derivatives and their use as selective ALK-2 inhibitors” (priority 2016, dated 2020) one finds IC50 data, which are given here for seven molecules.

Usually IC50 stands for the concentration needed to halve the response being measured.

Experiment [1] concerns the target T1, wild-type ALK2 (aa172-499) (Homo sapiens (Human), UniProt Q04771). Kind of experiment: Caliper biochemical peptide phosphorylation assay, ALK2. The conditions noted are these: 15 μm ATP, 60 min at 30° C.; read-out: ALK2 EPK (IC50).
Experiment [2] concerns the target T1, wild-type ALK2 (aa172-499). The experiment is described as follows: ADPGlo biochemical autophosphorylation assay, ALK2. The conditions noted are these: 15 μm ATP, 60 min at 32° C.
Experiment [3] concerns the target ALK6 (aa168-495) (Homo sapiens (Human), UniProt O00238). Kind of experiment: Caliper biochemical peptide phosphorylation assay, ALK6. The following applies: 15 μm ATP, 60 min at 30° C.; read-out: ALK6 EPK (IC50).
The target of experiment [4] is ALK1 (aa166-493) (Homo sapiens (Human), UniProt P37023). Kind of experiment: Caliper biochemical peptide phosphorylation assay, ALK1. The conditions noted are these: 15 μm ATP, 60 min at 30° C.; read-out: ALK1 EPK (IC50).
In experiment [5] the test system is BMP response element (BRE) luciferase reporter in HuH7 cells, BMP6 stimulated. The experiment is described as follows: BMP signaling reporter gene assay. In kind it is cell-based. The conditions noted are these: Homo sapiens, Huh-7; HuH7 BRE-luciferase, BMP6 100 ng/ml, 5 hours; read-out: MSD BMP RGA IC50. On the technique in general: In a reporter assay the amount or activity of a reporter protein is the signal.

Experiment [6] deals with ALK5 (aa162-503) (Homo sapiens (Human), UniProt P36897). Kind of experiment: Caliper biochemical peptide phosphorylation assay, ALK5. The conditions noted are these: 15 μm ATP, 60 min at 30° C.; read-out: ALK5 EPK (IC50).
For experiment [7], the target named is ALK3 (aa198-525) (Homo sapiens (Human), UniProt P36894). The experiment is described as follows: ADPGlo biochemical autophosphorylation assay, ALK3. The following applies: 15 μm ATP, 60 min at 32° C.
ALK3 (aa198-525), sequence (P36894 198-525): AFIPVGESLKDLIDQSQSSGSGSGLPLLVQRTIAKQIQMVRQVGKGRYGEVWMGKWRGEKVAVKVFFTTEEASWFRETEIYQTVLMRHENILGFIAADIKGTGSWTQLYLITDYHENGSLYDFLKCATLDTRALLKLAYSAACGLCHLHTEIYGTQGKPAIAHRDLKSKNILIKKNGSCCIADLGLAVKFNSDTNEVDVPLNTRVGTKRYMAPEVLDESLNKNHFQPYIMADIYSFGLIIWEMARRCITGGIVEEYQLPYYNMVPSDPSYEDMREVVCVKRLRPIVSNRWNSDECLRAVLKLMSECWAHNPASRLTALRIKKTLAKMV

T1 sequence (Q04771 172-499): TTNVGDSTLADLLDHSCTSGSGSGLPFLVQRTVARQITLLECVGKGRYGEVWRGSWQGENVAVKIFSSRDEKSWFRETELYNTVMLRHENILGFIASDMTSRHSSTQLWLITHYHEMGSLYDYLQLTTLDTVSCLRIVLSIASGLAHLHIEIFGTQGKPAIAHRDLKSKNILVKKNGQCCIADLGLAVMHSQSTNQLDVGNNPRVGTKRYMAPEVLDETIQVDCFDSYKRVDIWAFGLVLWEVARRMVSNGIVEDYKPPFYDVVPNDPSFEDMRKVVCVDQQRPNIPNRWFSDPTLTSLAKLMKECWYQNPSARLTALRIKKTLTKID
ALK5 (aa162-503), sequence (P36897 162-503): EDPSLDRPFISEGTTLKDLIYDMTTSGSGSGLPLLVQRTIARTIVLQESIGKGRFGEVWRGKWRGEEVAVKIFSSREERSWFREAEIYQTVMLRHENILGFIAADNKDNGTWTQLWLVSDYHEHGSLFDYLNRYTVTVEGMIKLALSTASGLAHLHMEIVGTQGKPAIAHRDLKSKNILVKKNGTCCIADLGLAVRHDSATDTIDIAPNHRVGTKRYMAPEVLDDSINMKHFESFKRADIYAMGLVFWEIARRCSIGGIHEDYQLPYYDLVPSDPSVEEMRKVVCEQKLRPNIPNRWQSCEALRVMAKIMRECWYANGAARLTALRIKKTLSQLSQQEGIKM
ALK1 (aa166-493), sequence (P37023 166-493): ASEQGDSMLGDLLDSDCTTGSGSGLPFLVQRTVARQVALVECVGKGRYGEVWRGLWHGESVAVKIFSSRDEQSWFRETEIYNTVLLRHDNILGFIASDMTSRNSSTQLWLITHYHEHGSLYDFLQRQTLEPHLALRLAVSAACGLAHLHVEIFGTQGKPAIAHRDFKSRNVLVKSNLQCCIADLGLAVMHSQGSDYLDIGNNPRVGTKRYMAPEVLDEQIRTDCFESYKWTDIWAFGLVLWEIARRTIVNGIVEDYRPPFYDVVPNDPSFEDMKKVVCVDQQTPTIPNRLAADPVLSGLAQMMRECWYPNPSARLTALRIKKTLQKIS
ALK6 (aa168-495), sequence (O00238 168-495): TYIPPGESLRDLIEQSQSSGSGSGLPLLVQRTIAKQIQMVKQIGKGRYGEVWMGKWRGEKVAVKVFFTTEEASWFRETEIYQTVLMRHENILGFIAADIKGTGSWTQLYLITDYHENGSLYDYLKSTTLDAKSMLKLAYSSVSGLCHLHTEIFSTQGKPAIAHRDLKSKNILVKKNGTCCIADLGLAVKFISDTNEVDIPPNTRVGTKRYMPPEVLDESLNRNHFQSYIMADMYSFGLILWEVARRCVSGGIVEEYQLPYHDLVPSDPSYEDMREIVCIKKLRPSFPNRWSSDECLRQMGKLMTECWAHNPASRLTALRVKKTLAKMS

For the molecule `Nc1ncc(-c2ccc([C@]34C[C@H]3CN(CCCN3CCOCC3)C4)cc2)cc1C(=O)N[C@H]1CC[C@H](O)CC1` [Example 5, 2-amino-N-((1r,4S)-4-hydroxycyclohexyl)-5-(4-((1S,5R)-3-(3-morpholinopropyl)-3-azabicyclo[3.1.0]hexan-1-yl)phenyl)nicotinamide], the half-maximal inhibitory concentration (IC50) in experiment [1] stood at 0.01 µM; in experiment [2], 0.007 µM; in experiment [3], 2.5 µM; in experiment [4] it was 0.081 µM; in experiment [5], 0.12 µM; in experiment [6], 2.2 µM. Moreover, the IC50 in experiment [7] worked out at 1.1 µM.

For `Nc1ncc(-c2ccc([C@@]34C[C@@H]3CN(C(CF)CF)C4)cc2)cc1C(=O)N[C@H]1CC[C@H](O)CC1` [Example 6, 2-amino-5-(4-((1R,5S)-3-(1,3-difluoropropan-2-yl)-3-azabicyclo[3.1.0]hexan-1-yl)phenyl)-N-((1r,4R)-4-hydroxycyclohexyl)nicotinamide], the half-maximal inhibitory concentration (IC50) in experiment [1] was 0.015 µM; in experiment [2] it was 0.018 µM; in experiment [3], 5.2 µM; in experiment [4] it was 0.22 µM; in experiment [5], 0.87 µM; in experiment [6] it was 10 µM. The molecule further registered an IC50 in experiment [7] of 0.94 µM.

In the case of `COCCN1C[C@@H]2C[C@]2(c2ccc(-c3cnc(N)c(C(=O)NC45CCC(O)(CC4)CC5)c3)cc2)C1` [Example 7, 2-amino-N-(4-hydroxybicyclo[2.2.2]octan-1-yl)-5-(4-((1S,5R)-3-(2-methoxyethyl)-3-azabicyclo[3.1.0]hexan-1-yl)phenyl)nicotinamide], the IC50 turned out to be 0.012 µM in experiment [1]; 0.012 µM in experiment [2]; 2.4 µM in experiment [3]; 0.195 µM in experiment [4]; 0.051 µM in experiment [5]; 5.45 µM in experiment [6]. For the same molecule, inhibition in experiment [7] was half-maximal at 0.875 µM (IC50).

With `CC(C)N1CCN(c2ccc(-c3cnc(N)c(C(=O)N[C@H]4CC[C@H](O)CC4)c3)c(F)c2)CC1` [Example 8, 2-amino-5-(2-fluoro-4-(4-isopropylpiperazin-1-yl)phenyl)-N-((1r,4r)-4-hydroxycyclohexyl)nicotinamide], the IC50 in experiment [1] was 0.012 µM; in experiment [2], 0.013 µM; in experiment [3] it was 5 µM; in experiment [4], 0.22 µM; in experiment [5], 0.069 µM; in experiment [6], 4 µM. This molecule came in with an IC50 in experiment [7] of 1.9 µM.

In the case of `CC(C)N1C[C@@H]2C[C@]2(c2ccc(-c3cnc(N)c(C(=O)N[C@H]4CC[C@H](O)CC4)c3)cc2)C1` [Example 9, 2-amino-N-((1r,4S)-4-hydroxycyclohexyl)-5-(4-((1S,5R)-3-isopropyl-3-azabicyclo[3.1.0]hexan-1-yl)phenyl)nicotinamide], the IC50 in experiment [1] came out at 0.011 µM; in experiment [2], 0.011 µM; in experiment [3] it was 3.13 µM; in experiment [4], 0.127 µM; in experiment [5], 0.043 µM; in experiment [6], 3.13 µM. In addition, the IC50 in experiment [7] came out at 1.6 µM.

Regarding `Nc1ncc(-c2ccc([C@@]34C[C@@H]3CN(CCN3CCOCC3)C4)cc2)cc1C(=O)N[C@H]1CC[C@H](O)CC1` [Example 10, 2-amino-N-((1r,4R)-4-hydroxycyclohexyl)-5-(4-((1R,5S)-3-(2-morpholinoethyl)-3-azabicyclo[3.1.0]hexan-1-yl)phenyl)nicotinamide], the concentration for half-maximal inhibition (IC50) in experiment [1] stood at 0.011 µM; in experiment [2], 0.011 µM; in experiment [3] it was 2.5 µM; in experiment [4] it was 0.089 µM; in experiment [5], 0.061 µM; in experiment [6], 2.6 µM. In addition, the IC50 in experiment [7] was found to be 1.4 µM.

As for `Nc1ncc(-c2ccc([C@]34C[C@H]3CN(CCF)C4)cc2)cc1C(=O)N[C@H]1CC[C@H](O)CC1` [Example 11, 2-amino-5-(4-((1S,5R)-3-(2-fluoroethyl)-3-azabicyclo[3.1.0]hexan-1-yl)phenyl)-N-((1r,4S)-4-hydroxycyclohexyl)nicotinamide], the IC50 in experiment [1] was 0.012 µM; in experiment [2] it was 0.009 µM; in experiment [3], 3.9 µM; in experiment [4] it was 0.15 µM; in experiment [5] it was 0.051 µM; in experiment [6], 2.4 µM. In experiment [7], this molecule gave an IC50 of 1.1 µM.
